The values that follow are results of earlier work, collected in patent publication US20100105761A1, “TREATMENT OF PAIN THROUGH EXPRESSION OF OPIOID RECEPTORS” (priority 2006, published 2010).

Where two headings read alike, the source gives them in different places.

The test system of one data set is TMJ. The note with it: placed into the TMJ of cats.
For data set [1], the system named is μ receptor. The conditions noted are these: in vivo.
For data set [2], the system named is μ receptor.
The test system of the next data set is TMJ area. The conditions noted are these: rats, dose dependent.
The test system of data set [3] is masseter muscle. The note with it: human.
Data set [4] has as its system masseter muscle. The note with it: rat.

For `[Cl-].[K+]` [potassium chloride], the “EMG activity in the temporal, digastric and genioglossus muscles” value in the data set on TMJ is “increase in electromyographic (EMG) activity”.
In the case of `C=CCN1CC[C@]23c4c5ccc(O)c4O[C@H]2/C(=N\N)CC[C@@]3(O)[C@H]1C5` [naloxazone], in the data set on μ receptor [1], the “blockade of morphine-induced antinociception” value is on record as “selectively blocked”, the “blockade of morphine-induced respiratory depression” value is “did not block” and the “blockade of the induction of morphine dependence” value is given as “did not block”. The “effect on binding of radioligands to the μ1-site” value in the data set with μ1-site is listed as “abolish the binding of radioligands”.
Turning to `NCCc1c[nH]cn1` [histamine], the “EMG activity in the temporal, digastric and genioglossus muscles” value with TMJ is recorded as “increase in electromyographic (EMG) activity”.
In the case of `C=CCN1CC[C@]23c4c5ccc(O)c4O[C@H]2/C(=N/N=C2\CC[C@@]4(O)[C@H]6Cc7ccc(O)c8c7[C@@]4(CCN6CC=C)[C@H]2O8)CC[C@@]3(O)[C@H]1C5` [naloxonazine], the “effect on binding of radioligands to the μ1-site” value with μ1-site is listed as “abolish the binding of radioligands”.
Consider `CC(=O)Oc1ccc2c3c1O[C@H]1[C@@H](OC(C)=O)C=C[C@H]4[C@@H](C2)N(C)CC[C@@]341` [heroin], for which the “antinociception in mice of the CXBX strain” value in the data set on μ receptor [2] (CXBX strain) is “potently antinociceptive”. In addition, the “antinociception in MOR-1 knockout mice, exon-1 disrupted” value in the data set on μ receptor [2] (MOR-1 knockout, exon-1) is reported as “still produce antinociception”.
In the case of `N[C@@H](CCC(=O)O)C(=O)O` [glutamate], the “EMG activity after injection into the TMJ area” value with TMJ area was “induced a prolonged increase in EMG activity”. The “masseter muscle activity, female versus male” value in the data set with masseter muscle [3] and with masseter muscle [4] was “evoked higher masseter muscle activity in female than males” throughout.
